In general, IC50 refers to the point on the concentration scale where inhibition reaches its midpoint. A low value points to higher potency.

This assay concerns the target Leucine--tRNA ligase (Staphylococcus aureus). As to the kind of experiment: Compound was evaluated for its inhibitory activity against Leucyl-tRNA synthetase from staphylococcus aureus WCUH29.

The compound `CC[C@H](C)[C@H](N)C(=O)NS(=O)(=O)CC(=O)N[C@]1(C(=O)OC)[C@@H]2CN(C)C=C(C(N)=O)[C@@H]2C[C@@H]1O` [(4aR,6S,7R,7aS)-7-[2-((2S,3S)-2-Amino-3-methyl-pentanoylsulfamoyl)-acetylamino]-4-carbamoyl-6-hydroxy-2-methyl-2,4a,5,6,7,7a-hexahydro-1H-[2]pyrindine-7-carboxylic acid methyl ester] had an IC50 of 186 µM.
